From EP4763837A1, “PHOTOCHROMIC COMPOUND, CURABLE COMPOSITION, OPTICAL ARTICLE, LENS, AND EYEGLASSES” (TOKUYAMA CORPORATION, priority 2023, dated 2025)
Several values for one entry are separate records, joined by “and”; a condition that tells them apart may be missing. Equal entries are not always repeated.

Tests used:
[1] = Photochromic property of binder sheet (photochromic layer made by binder method); type: physicochemical; settings: for Residual ratio: A96/A0 x 100 after 96 hours accelerated degradation, xenon weather meter X25; for Color developing density at 23°C: absorbance difference after 240 seconds irradiation at the maximum absorption wavelength of the same line
Experimental: The resulting photochromic laminates were evaluated by the below-mentioned methods. • (1) Photochromic property • [1] Maximum absorption wavelength (λmax): This is the maximum absorption wavelength after color development determined by a spectrophotometer manufactured by Otsuka Electronics Co., Ltd. (instantaneous multichannel photo detector MCPD3000) and was used as an index of a color tone upon color development. • [2] Color developing density at 23°C (A23): This is a difference between an absorbance {ε(240)} after irradiation with light at 23°C for 240 seconds and an absorbance ε(0) when not irradiated with light at the maximum absorption wavelength and was used as an index of a color developing density. The higher this value is, the better a photochromic property is. • [3] Color fading half-life at 23°C [τ1/2 (sec).)]: This is a period of time taken by an absorbance at the maximum absorption wavelength of a sample to decrease to 1/2 of {ε(240)-ε(0)} when irradiation is stopped after irradiation with light at 23°C for 240 seconds, and was used as an index of a color fading rate. The shorter this period of time is, the faster the color fading rate is. • [4] Residual ratio (A96/A0 x 100): The resulting photochromic plastic lens was subjected to accelerated degradation for 96 hours using a xenon weather meter X25 manufactured by Suga Test Instruments Co., Ltd. Color developing densities were then evaluated before and after a test, and a color developing density before the test (A0) and a color developing density after the test (A96) were measured. A ratio (A96/A0) was determined as a residual ratio and was used as an index of color development durability. The higher the residual ratio is, the more durable the color development is.
A binder sheet was produced as follows. The binder sheet was made by laminating a first optical sheet, a first adhesive layer, a photochromic layer, a second adhesive layer, and a second optical sheet in this order. A polycarbonate sheet with a thickness of 400 µm was used as the first optical sheet and the second optical sheet.
A 2 L four-necked flask equipped with a stirring blade, a condense tube, a thermometer, and a nitrogen gas inlet tube was charged with 315 parts by mass of polycarbonate diol with a number average molecular weight of 1000, 100 parts by mass of isophorone diisocyanate, and 72 parts by mass of toluene and reacted under a nitrogen atmosphere at 100°C for 7 hours. Thus, a urethane prepolymer with a terminal isocyanate group was synthesized. After the reaction of the above-mentioned urethane prepolymer was completed, the resulting reaction liquid was cooled to about 0°C and dissolved in 205 parts by mass of tertiary-butyl alcohol and 382 parts by mass of diethyl ketone, and then a temperature of the resulting liquid was kept at 0°C. Next, a mixed solution of 21.3 parts by mass of bis-(4-aminocyclohexyl)methane serving as a chain extender and 20 parts by mass of diethyl ketone was added dropwise thereto within 30 minutes and reacted at 0°C for 1 hour. Then, 8.1 parts by mass of 1,2,2,6,6-pentamethyl-4-aminopiperidine was added dropwise thereto and reacted at 0°C for 1 hour to obtain a solution of a terminal non-reactive urethane urea resin in diethylketone.
One hundred parts by mass of the resulting solution of a terminal non-reactive urethane urea resin, 6.3 parts by mass of Example 1 (a photochromic compound represented by Formula (1-7), an isomer mixture of 4,4'-methylenebis(cyclohexylisocyanate) (polyisocyanate compound)), 0.4 parts by mass of ethylenebis(oxyethylene) bis[3-(5-tert-butyl-4-hydroxy-m-tolyl) propionate] serving as an antioxidant, and 0.06 parts by mass of L-7001 manufactured by DuPont Toray Specialty Materials K.K. serving as a surfactant were added and stirred and mixed at room temperature to obtain a composition for forming a photochromic layer. […]

[2] = Solubility of photochromic compound in polymerizable compounds; type: physicochemical; parameters: key: 1: No haze is seen when checked under transmission of light, and the sample is completely dissolved.; 2: A very thin haze is seen to the extent that it can be seen under transmission of light.; 3: A thin haze that can be seen under transmission of light is seen.; 4: A haze can be seen even without transmission of light; settings: 35 µmol/g in radical polymerizable compound composition of Example 21, 65 to 70°C; for Dissolution for 15 min / Dissolution for 30 min / Dissolution for 45 min: stirring and ultrasonic irradiation; for Dissolution for 1 hour: head reads 60 min in Tables 8 to 14
How it was run: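 Photochromic compound was added to the radical polymerizable portion of a curable composition and dissolved at 65 to 70°C under stirring and intermittent ultrasonication. The sample was inspected visually by transmitted light every 15 minutes up to 1 h and scored 1 (fully dissolved, no haze) to 4 (haze visible without transmitted light). Solubility was ranked by the time taken to reach score 1.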

Residual ratio [1] | Dissolution for 15 min [2] | Dissolution for 30 min [2] | Dissolution for 45 min [2] | Dissolution for 1 hour [2] | Color developing density at 23°C [1] | SMILES
75% and 72% | 4 | 2 | 1 | 1 |  | CCCCC1(CCC)c2ccccc2-c2c1c1c(c3cc(OC)c(N4CCOCC4)cc23)OC(c2ccc(OC)cc2)(c2ccc(OC)cc2)C=C1 (stereo not shown) [Formula (6-2)]
93% | 4 | 2 | 2 | 1 | 1.19 - | CCC1(C)c2ccccc2-c2c1c1c(c3cc(OC)c(N(C)c4ccccc4)cc23)OC(c2ccc(OC)cc2)(c2ccc(OC)cc2)C=C1 (stereo not shown) [Formula (9-1)]
75% | 4 | 2 | 1 | 1 |  | CCCC1(CC)c2ccccc2-c2c1c1c(c3cc(OC)c(N4CCOCC4)cc23)OC(c2ccc(OC)cc2)(c2ccc(OC)cc2)C=C1 (stereo not shown) [Formula (14-1)]
71% and 74% | 3 | 2 | 1 | 1 |  | CCCCCCC1(CC)c2ccccc2-c2c1c1c(c3cc(OC)c(N4CCOCC4)cc23)OC(c2ccc(OC)cc2)(c2ccc(OC)cc2)C=C1 (stereo not shown) [Formula (18-1)]
62% and 66% | 2 | 1 | 1 | 1 |  | CCCCCCCCCCCC1(C)c2ccccc2-c2c1c1c(c3cc(OC)c(N4CCOCC4)cc23)OC(c2ccc(OC)cc2)(c2ccc(OC)cc2)C=C1 (stereo not shown) [Formula (19-1)]
63% and 65% | 4 | 3 | 3 | 3 |  | COc1ccc(C2(c3ccc(OC)cc3)C=Cc3c4c(c5cc(N6CCOCC6)c(OC)cc5c3O2)-c2ccccc2C4(C)C)cc1 [Formula (A), reference compound]
50% and 51% | 4 | 3 | 1 | 1 | 1.32 - and 0.71 - | CCC1(OC)c2ccccc2-c2c1c1c(c3cc(OC)c(N4CCOCC4)cc23)OC(c2ccc(OC)cc2)(c2ccc(OC)cc2)C=C1 (stereo not shown) [Formula (B), reference compound]
